Values quoted from earlier work in US20090209489A1, “Compositions for the treatment of diabetis, system PH disorders, high blood pressure, and a cancer marker system” (priority 2008, published 2009).

Test system: Group 5 viruses
Conditions: therapeutic doses

**Q.** Which “effectiveness at killing Group 5 viruses relative to any other known medication” value does the source give for `CC(=O)N[C@H]1[C@H]([C@H](O)[C@H](O)CO)OC(O)(C(=O)O)C[C@@H]1O` (stereo partly shown) [N-Acetyl-Neuraminic Acid] here?
**A.** more than 1000 times
